“And” between values parts separate entries of the source, which are not always exact repeats. Equal values may be shown once.
Columns and labels:
CD31 (mouse) = CD31 (mouse) (UniProt Q08481); experiment: IF colocalization (JACoP) of VT680 phage with marker, CP mouse pancreas sections
F4/80 (mouse) = F4/80 (mouse) (UniProt Q61549); experiment: as above
[1] = target: carboxypeptidase A1 (CPA1) (mouse) (UniProt Q7TPZ8); experiment: as above
collagen IIIa (mouse) = collagen IIIa (mouse) (UniProt P08121); experiment: as above
[2] = target: cytokeratin 7 (CK-7) (mouse) (UniProt Q9DCV7); experiment: as above
[3] = system: caerulein-induced CP mice (inflamed pancreas) versus healthy mice; experiment: In vivo validation of individual phage clones: ex vivo IVIS fluorescence of organs after co-injection of targeting phage (VT680) and wild type M13Ke phage (VT750); set-up: species or system mouse (C57BL/6J); conditions: for CP-to-Healthy Ratio (fold change of specificity ratio): Pancreas; for specificity for CP over healthy pancreas: individual clones from Groups 2 and 3
Method: C57BL/6 J mice (6-12 week-old, female) were used for the in vivo phage screening. For chronic pancreatitis, caerulein (Bachem, Torrance, California, United States of America) was dissolved in sterile saline and administrated to mice twice a day, 8 hours apart for 14 consecutive days, at a concentration of 250 μg/kg body weight via intraperitoneal injection (Halbrook et al., 2017), as shown in FIG. 1A. During the 14-day course, intraperitoneal injections of 100 μg/kg buprenorphine were given every 3 days to minimize the induced pain. For healthy controls, c57BL/6 J mice were injected intraperitoneally with an equal volume of sterile saline following the same schedule as in the chronic pancreatitis models. […] Picrosirius red (Polysciences, Inc., Warrington, Pennsylvania, United States of America) was used to visualize collagen in paraffin-embedded pancreas sections (FIG. 1B).
Specificity of phage clones. After PHASTpep analysis and candidate clone selections, 18 candidate clones were grouped (4-5 clones per group, 4 groups total) based on sequence similarity using GibbsCluster Server 2.0 (Andreatta et al., 2017). by the Technical University of Denmark (FIG. 2). […] For each group, the fluorescently labeled candidate and WT phage were mixed and co-injected in CP and healthy mice (n=5) Phage accumulation was determined by measuring the ex vivo fluorescent intensity of the pancreas at 20 hours post-injection using the Fluorescent Molecular Tomography (FMT, PerkinElmer, Waltham, Massachusetts, United States of America) using the excitation and emission wavelength at 675 nm/720 nm for VT680 and 745 nm/800 nm for VT750. To account for variations of fluorescent labeling efficiency, the raw readouts of VT680 and VT750 were normalized to the dye-per-phage ratio (see Table 3 below).
The specificity ratio was calculated as % ID/g of the normalized VT680 divided by the % ID/g of the normalized VT750 (see Equation (1)). Quantifications are included in Table 4.
A similar procedure was applied to determine the specificity of individual phage clones in Groups 2 and 3. Candidate clones were labeled with VivioTag 680 (VT680, PerkinElmer, Waltham, MA) to match the detectable wavelength of the IVIS Spectrum Series (Perkin Elmer, Waltham, Massachusetts, United States of America). Fluorescent intensity was measured at 20 hours post-injection of candidate phage (VT680) and WT phage (VT750). Fold change of specificity ratio was calculated as the specificity ratio of CP mice divided by the specificity ratio of the healthy mouse (see Table 5).

CD31 (endothelium) = experiment: Immunofluorescence colocalization (MCC) of VT680-labeled phage with cell marker in CP pancreas; assay type: in vivo, mouse; conditions: CP pancreas sections
Text: (§1) Immunofluorescence (IF). Post ex vivo imaging, mouse pancreata were submerged in Neg-50 Frozen Section Medium (Thermo Scientific, Waltham, Massachusetts, United States of America) and snap-frozen over liquid nitrogen vapor. The embedded tissues were cut into 5 μm sections using a cryostat (Leica Microsystems Inc., Buffalo Grove, Illinois, United States of America) for subsequent imaging with ZEISS LSM-880 Confocal Laser Scanning Microscope (Carl Zeiss Meditec, Inc., Jena, Germany) at the Advanced Microscopy Facility at the University of Virginia. Cell types of interest in the pancreatitis microenvironment were identified by immunohistochemistry using the following antibodies: rat anti-mouse CD31 at 1:200 dilution (endothelial markers; BD Biosciences, San Jose, California, United States of America), rat anti-mouse CD206 at 1:1000 dilution (M2 macrophage markers; Bio-Rad, Hercules, California, United States of America), rabbit anti-mouse cytokeratin 7 at 1:3000 dilution (CK-7, epithelial markers; Abcam, Cambridge, Massachusetts, United States of America), rabbit anti-mouse collagen IIIa at 1:200 dilution (ECM markers; Abcam, Cambridge, Massachusetts, United States of America), goat anti-mouse carboxypeptidase A1 at 1:200 dilution (CPA1, acini markers; R&D Systems, Inc., Minneapolis, Minnesota, United States of America), rat anti-mouse F4/80 at 1:500 (macrophage markers; Bio-Rad, Hercules, California, United States of America), and FITC-conjugated, mouse anti-mouse α-SMA at 1:200 dilution (MilliporeSigma, St. Louis, Missouri, United States of America). ALEXA FLUOR® 488 (Abcam, Cambridge, Massachusetts, United States of America) antibodies from appropriate species, including donkey anti-goat, donkey anti-rat, donkey anti-rabbit at 1:500 dilution, were used as secondary antibodies to locate the primary antibodies. IF-stained pancreatic sections were mounted with PROLONG™ Gold Antifade Mountant with DAPI (Thermo Fisher Scientific Inc, Waltham, Massachusetts, United States of America, United States of America) for nucleus visualization. IF images were taken on Ziess LSM 880 Confocal Microscope (ZIESS, Oberkochen, Germany) at the Advanced Microscopy Facility at the University of Virginia.
(§2) To identify the cell types that the CP targeting clones were binding, immunofluorescent analysis was performed on common cellular components in the CP microenvironment in the inflamed pancreas sections following in vivo validation of individual clones (FIG. 7). Mander's correlation coefficient (MCC) analysis was performed to determine colocalization of the targeting phage to the cell markers.

CK7 (epithelium) = experiment: as above; assay type: in vivo, mouse; conditions: CP pancreas sections
Text: as §1, §2

[4] = system: CPA-1+ cells (acinar cells); experiment: as above; assay type: in vivo, mouse; conditions: CP pancreas sections
Text: as §1, §2

[5] = system: F4/80+ cells (macrophages); experiment: as above; assay type: in vivo, mouse; conditions: CP pancreas sections
Text: as §1, §2

[6] = system: collagen IIIa+ cells (ECM); experiment: as above; assay type: in vivo, mouse; conditions: Col IIIa; CP pancreas sections
Text: as §1, §2

[7] = system: αSMA+ cells (activated PSC); experiment: as above; assay type: in vivo, mouse; conditions: CP pancreas sections
Text: as §1, §2

[8] = system: cellular components in the CP microenvironment; experiment: Cellular selectivity of phage clones: one-way ANOVA and Tukey-Kramer comparison of MCC of all cell markers; assay type: in vivo, mouse
Text: as §1
Statistical analysis. Statistical analysis of the data was performed by student t-test, one-way analysis of variance (ANOVA), and Tukey-Kramer test. All data presented are expressed as mean+standard error of at least three independent measurements. For all comparisons, p-values<0.05 were considered significant.
as §2

[9] = statistically significant selectivity for a single cellular component in CP

Chain of UniProt Q9DCV7 (Q9DCV7 2-457): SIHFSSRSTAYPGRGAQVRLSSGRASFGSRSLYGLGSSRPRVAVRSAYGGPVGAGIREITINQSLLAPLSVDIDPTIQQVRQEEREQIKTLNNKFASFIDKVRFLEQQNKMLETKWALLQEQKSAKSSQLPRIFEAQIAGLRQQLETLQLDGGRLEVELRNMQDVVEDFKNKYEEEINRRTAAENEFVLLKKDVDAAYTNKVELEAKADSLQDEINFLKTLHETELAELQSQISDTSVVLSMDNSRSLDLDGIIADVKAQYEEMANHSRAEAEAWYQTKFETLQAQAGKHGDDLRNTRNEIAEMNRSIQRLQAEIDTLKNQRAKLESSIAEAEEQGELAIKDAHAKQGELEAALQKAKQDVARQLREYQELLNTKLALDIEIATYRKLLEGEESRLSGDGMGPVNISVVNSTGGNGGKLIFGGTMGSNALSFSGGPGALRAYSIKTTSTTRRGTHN
Chain of UniProt Q7TPZ8 (Q7TPZ8 111-419): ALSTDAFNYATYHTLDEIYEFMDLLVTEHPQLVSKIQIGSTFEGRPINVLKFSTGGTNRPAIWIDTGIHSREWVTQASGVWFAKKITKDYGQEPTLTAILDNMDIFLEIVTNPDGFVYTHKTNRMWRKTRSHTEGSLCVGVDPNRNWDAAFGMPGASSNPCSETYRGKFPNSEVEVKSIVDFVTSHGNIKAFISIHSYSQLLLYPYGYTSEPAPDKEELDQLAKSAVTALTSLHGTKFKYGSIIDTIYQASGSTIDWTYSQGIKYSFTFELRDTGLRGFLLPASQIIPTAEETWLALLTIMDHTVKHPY
Chain of UniProt Q08481 (Q08481 18-727): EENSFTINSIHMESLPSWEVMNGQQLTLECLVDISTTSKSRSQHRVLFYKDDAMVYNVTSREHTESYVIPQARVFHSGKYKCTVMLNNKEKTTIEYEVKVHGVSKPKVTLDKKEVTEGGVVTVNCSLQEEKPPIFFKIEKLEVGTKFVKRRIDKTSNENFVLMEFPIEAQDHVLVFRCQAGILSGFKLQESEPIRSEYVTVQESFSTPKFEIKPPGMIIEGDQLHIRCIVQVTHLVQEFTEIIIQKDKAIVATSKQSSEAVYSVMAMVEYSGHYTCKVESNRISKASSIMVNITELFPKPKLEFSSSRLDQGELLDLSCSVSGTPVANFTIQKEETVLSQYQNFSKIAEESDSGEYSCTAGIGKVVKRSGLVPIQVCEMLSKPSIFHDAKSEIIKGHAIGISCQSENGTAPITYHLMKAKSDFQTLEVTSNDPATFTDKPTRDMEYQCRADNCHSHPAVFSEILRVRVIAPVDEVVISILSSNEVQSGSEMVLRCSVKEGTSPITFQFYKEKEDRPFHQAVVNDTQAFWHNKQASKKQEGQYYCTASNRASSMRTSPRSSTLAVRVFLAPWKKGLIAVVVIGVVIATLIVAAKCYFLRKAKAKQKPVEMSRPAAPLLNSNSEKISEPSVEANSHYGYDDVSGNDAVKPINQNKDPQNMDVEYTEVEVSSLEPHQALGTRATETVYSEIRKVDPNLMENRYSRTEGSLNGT
Chain of UniProt P08121 (P08121 155-1219): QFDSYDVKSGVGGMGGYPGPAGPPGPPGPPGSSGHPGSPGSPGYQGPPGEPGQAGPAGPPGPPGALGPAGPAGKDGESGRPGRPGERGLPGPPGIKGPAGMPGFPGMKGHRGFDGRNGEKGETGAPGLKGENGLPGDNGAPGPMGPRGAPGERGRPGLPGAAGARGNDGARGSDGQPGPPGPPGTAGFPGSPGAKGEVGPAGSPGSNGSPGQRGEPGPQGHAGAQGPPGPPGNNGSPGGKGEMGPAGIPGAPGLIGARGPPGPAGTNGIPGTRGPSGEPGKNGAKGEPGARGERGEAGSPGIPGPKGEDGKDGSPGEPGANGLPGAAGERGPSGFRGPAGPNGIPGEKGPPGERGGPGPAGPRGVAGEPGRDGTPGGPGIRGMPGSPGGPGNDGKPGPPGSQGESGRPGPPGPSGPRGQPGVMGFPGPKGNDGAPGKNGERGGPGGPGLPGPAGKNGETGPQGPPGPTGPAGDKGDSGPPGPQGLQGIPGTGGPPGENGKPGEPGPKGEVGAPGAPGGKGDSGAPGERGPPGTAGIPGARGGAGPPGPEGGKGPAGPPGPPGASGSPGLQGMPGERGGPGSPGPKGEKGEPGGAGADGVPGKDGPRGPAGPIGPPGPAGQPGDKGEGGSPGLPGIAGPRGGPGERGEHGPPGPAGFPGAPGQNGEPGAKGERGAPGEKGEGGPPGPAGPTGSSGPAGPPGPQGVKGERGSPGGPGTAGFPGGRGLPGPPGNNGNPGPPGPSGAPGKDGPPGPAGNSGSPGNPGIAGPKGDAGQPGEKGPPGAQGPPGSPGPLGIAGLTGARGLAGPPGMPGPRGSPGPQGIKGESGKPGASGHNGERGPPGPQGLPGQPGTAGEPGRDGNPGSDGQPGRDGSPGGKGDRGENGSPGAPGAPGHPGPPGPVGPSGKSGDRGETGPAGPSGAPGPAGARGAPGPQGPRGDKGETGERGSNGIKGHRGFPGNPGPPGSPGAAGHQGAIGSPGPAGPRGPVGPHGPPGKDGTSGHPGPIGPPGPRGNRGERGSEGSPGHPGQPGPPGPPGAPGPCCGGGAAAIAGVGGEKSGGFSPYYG
Chain of UniProt Q61549 (Q61549 28-931): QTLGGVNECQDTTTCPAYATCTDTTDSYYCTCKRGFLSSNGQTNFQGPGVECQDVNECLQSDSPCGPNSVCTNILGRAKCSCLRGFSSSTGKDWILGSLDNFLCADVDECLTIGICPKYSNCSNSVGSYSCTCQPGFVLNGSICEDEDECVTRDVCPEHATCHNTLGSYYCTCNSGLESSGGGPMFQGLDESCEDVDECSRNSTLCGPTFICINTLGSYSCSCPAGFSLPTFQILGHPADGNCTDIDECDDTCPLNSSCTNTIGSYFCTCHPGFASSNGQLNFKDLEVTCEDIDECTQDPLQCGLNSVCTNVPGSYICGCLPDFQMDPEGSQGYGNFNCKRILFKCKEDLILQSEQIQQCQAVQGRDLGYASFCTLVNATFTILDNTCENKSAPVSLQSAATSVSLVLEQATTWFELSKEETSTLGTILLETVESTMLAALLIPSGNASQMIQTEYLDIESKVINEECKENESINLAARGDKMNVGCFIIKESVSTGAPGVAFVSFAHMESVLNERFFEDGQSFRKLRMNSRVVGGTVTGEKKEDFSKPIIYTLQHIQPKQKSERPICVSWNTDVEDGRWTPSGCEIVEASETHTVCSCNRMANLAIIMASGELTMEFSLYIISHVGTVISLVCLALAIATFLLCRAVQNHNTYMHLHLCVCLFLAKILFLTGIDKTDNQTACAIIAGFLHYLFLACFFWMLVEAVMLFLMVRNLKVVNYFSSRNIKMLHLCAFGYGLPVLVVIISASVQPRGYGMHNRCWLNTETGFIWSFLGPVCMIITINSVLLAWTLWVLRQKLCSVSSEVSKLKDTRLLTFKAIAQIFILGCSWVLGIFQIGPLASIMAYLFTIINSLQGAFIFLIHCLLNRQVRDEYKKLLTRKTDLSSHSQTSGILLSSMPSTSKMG

Substance	mean Manders' correlation coefficient (MCC), fraction of phage overlapping cell marker (CD31 (mouse))	mean Manders' correlation coefficient (MCC), fraction of phage overlapping cell marker (F4/80 (mouse))	mean Manders' correlation coefficient (MCC), fraction of phage overlapping cell marker [1]	mean Manders' correlation coefficient (MCC), fraction of phage overlapping cell marker (collagen IIIa (mouse))	mean Manders' correlation coefficient (MCC), fraction of phage overlapping cell marker [2]	Radiant efficiency Targeting:M13Ke ([3]; CP mouse, liver)	Radiant efficiency Targeting:M13Ke ([3]; CP mouse, pancreas)	Radiant efficiency Targeting:M13Ke ([3]; CP mouse, spleen)	CP-to-Healthy Ratio ([3]; Liver)	CP-to-Healthy Ratio (fold change of specificity ratio) [3]	CP-to-Healthy Ratio ([3]; Spleen)	Radiant efficiency Targeting:M13Ke ([3]; healthy mouse, liver)	Radiant efficiency Targeting:M13Ke ([3]; healthy mouse, pancreas)	Radiant efficiency Targeting:M13Ke ([3]; healthy mouse, spleen)	specificity for CP over healthy pancreas [3]	Mean Manders' Correlation Coefficient (MCC), fraction of phage overlapping cell marker (CD31 (endothelium))	Mean Manders' Correlation Coefficient (MCC), fraction of phage overlapping cell marker (CK7 (epithelium))	Mean Manders' Correlation Coefficient (MCC), fraction of phage overlapping cell marker [4]	Mean Manders' Correlation Coefficient (MCC), fraction of phage overlapping cell marker [5]	Mean Manders' Correlation Coefficient (MCC), fraction of phage overlapping cell marker [6]	further results
HPYSPLR (SEQ ID NO: 11) phage clone (peptide)	0.35	0.41	0.25	0.27	0.08																
KTYVPTT (SEQ ID NO: 14) phage clone (peptide)	0.2	0.31	0.26	0.23	0.06																
MDLSLKP (SEQ ID NO: 19) phage clone (peptide)	0.2	0.46	0.31		0.06																
MNSIAIP (SEQ ID NO: 20) phage clone (peptide)	0.24	0.37	0.63	0.34	0.05																
MNSIAIP (displayed on phage)						0.61	9.81	3.61	1.144	1.945	0.829	0.53	5.04	4.36	increased specificity for CP over healthy pancreas	0.24	0.05	0.633±0.179 and 0.63	0.37	0.34	Mean Manders' Correlation Coefficient (MCC), fraction of phage overlapping cell marker [7]: 0.07; Cell type the phage clone shows specificity to ([8]; CP microenvironment): Acinar cells; Marker the phage clone shows specificity to ([8]; CP microenvironment): CPA1^+; Colocalized Markers (p < 0.05) [8, 9]: CPA-1; Corresponding Cellular Components [8, 9]: Acinar cells
SLPLGPM (SEQ ID NO: 26) phage clone (peptide)	0.25	0.49	0.35	0.23	0.06																
SLTNSSF (displayed on phage)						1.33	8.86	2.65	1.248	5.469	0.985	1.06	1.62	2.69	increased specificity for CP over healthy pancreas	0.13	0.11	0.22	0.804±0.090 and 0.80	0.33	Mean Manders' Correlation Coefficient (MCC), fraction of phage overlapping cell marker [7]: 0.06; Cell type the phage clone shows specificity to ([8]; CP microenvironment): Macrophage; Corresponding Cellular Components [8, 9]: Macrophage
SNSQDLH (SEQ ID NO: 28) phage clone (peptide)	0.12	0.8	0.23	0.33	0.14																
SNSQDLH (displayed on phage)						0.73	6.22	3.27	1.428	3.009	0.165	0.51	2.07	3.11	increased specificity for CP over healthy pancreas	0.12	0.14	0.23	0.800±0.197 and 0.80	0.33	Mean Manders' Correlation Coefficient (MCC), fraction of phage overlapping cell marker [7]: 0.05; Cell type the phage clone shows specificity to ([8]; CP microenvironment): Macrophage; Corresponding Cellular Components [8, 9]: Macrophage
